Key:
A1.1 T-cell hybridoma = details: Wang et al., Oncogene 1998; cited from earlier work
CD4 cells [1] = experiment: Proliferation by MTT assay, purified CD4 cell cultures; type: cell-based, human; details: for concentration with no significant effect on proliferation of CD4 cells / lowest concentration that completely inhibits proliferation of CD4 cells: MTT day 3; for lowest concentration that completely inhibits proliferation of CD4 cells: 2 hour incubation prior to stimulation
Description: Cells isolated from human blood are grown in X-vivo media (Biowhittaker Inc., Walkersville, Md.) and depending on use supplemented with or without 20 U/ml IL-2 (Boehringer Mannheim, Indianapolis, Ind.) and supplemented with 5% human serum (Biowhittaker), 2 mM Glutamine (Life Technologies, Rockville, Md.) and 20 mM HEPES (Life Technology). Jurkat E6-1 cells (ATCC, Manassas, Va.) are grown in RPMI 1640 (Life Technologies) supplemented with 10% fetal bovine serum (FBS) (Biowhittaker), 2 mM glutamine (Life Technologies), […] (Life Technologies), and […] (Life Technologies).
Buffy coats from healthy human volunteer donors are obtained (American Red Cross, Portland, Oreg.). Peripheral blood mononuclear cells (PBMC) are obtained using Lymphocyte Separation Media (ICN Pharmaceuticals, Costa Mesa, Calif.) according to the manufacturers' instructions.
Peripheral blood lymphocytes (PBL) are obtained from the PBMC fraction by incubation in a culture flask (Costar, Pittsburgh, Pa.) or with uncoated Dynabeads (Dynal, Oslo, Norway), 1×10^8 cells/ml, 2 beads/cell, 2 h at 37° C. Monocytes and macrophages are removed by adherence to the culture flask or phagocytoze the paramagnetic beads that are depleted by magnetic cell separation according to the manufacture's instruction (Dynal). CD4 cells are purified from the PBL fraction by incubation with 10 μg/ml of monoclonal antibodies against CD8 (clone G10-1), CD20 (clone IF5), CD14 (clone F13) and CD16 (Coulter), 10^8 cells/ml, 20 min at 4° C. After washing, cells are depleted twice with sheep anti-mouse Ig-coupled dynabeads (10^6 cells/ml, 6 beads/cell, 20 min at 4° C.) and magnetic cell separation. The purity of CD4 cells are routinely 91–95% as measured by flow cytometry.
Dendritic cells are generated from PBMC adhering to the culture flask (Costar), 10^8 cells/ml, 2 h at 37° C. (without Dynabeads). After extensive washing, adherent cells are cultured for 7 days in media containing 500 U/ml GM-CSF (Boehringer-Mannheim) and 12.5 U/ml IL-4 (Boehringer-Mannheim). The resulting cell population is weakly adherent and expresses surface markers characteristic of dendritic cells (positive for HLA-DR, CD86, CD83, CD11c and negative for CD4). (note:all antibodies obtained from Becton Dickinson, Calif.).
Cells are stimulated by three different methodologies 1) Dynabeads (M-450) covalently coupled to anti-CD3 (OKT-3) and anti-CD28 (9.3) antibodies (3×28 beads) according to the manufacturer's instructions (Dynal), 3 beads/cell, 2) Ionomycin (Calbiochem, La Jolla, Calif.) (100 ng/ml) and phorbol 12-myristate-13-acetate (PMA) (Calbiochem) (10 ng/ml), 3) allogeneic dendritic cells (25,000 dendritic cells/200,000 CD4 cells). All cells are stimulated at a concentration of 1×10^6 cells/ml. Cells are incubated with compounds of structure (I) (e.g., FR901228) (NCI, Bethesda, Md.) for 1 to 2 hours prior to stimulation as outlined above. Proliferation assays are conducted in quadruplicate in 96 well flat-bottom plates. Cells are stimulated at 1×10^6 cells/ml in a final volume of 200 μl. Proliferation is measured by MTT assay (MTT assay kit, Chemicon International Inc., Temecula, Calif.) at day 3 (stimulation method 1 and 2) or at day 6 (stimulation method 3), and results are presented as mean value of quadruplicates. PBL cultures or purified CD4 cell cultures are stimulated with 3×28 beads, ionomycin/PMA or allogenic dendritic cells. […] Further, […] cell survival is not affected by FR901228, as assessed by sub-G1 DNA measurement and integrity of the cell membrane (FIG. 5D). Lack of cytotoxicity of FR901228 is in agreement with results described by Byrd et al, Blood 94(4):1401–1408, 1999; Bates et al., Clinical Pharmacology, Programs and Proceedings of American Society of Clinical Oncology, Abstract 693, 1999; and Chassaing et al., J. Chrmatogr. B 719:169–176, 1998.

CD4 cells [2] = experiment: Intracellular DNA content by propidium iodide staining (cell cycle); type: cell-based, human; details: 3×28 beads 24 hours; 10 to 100 ng/ml; FIG. 12
Description: Unstimulated and stimulated (3×28 bead stimulation) CD4 cells were incubated with varying concentrations FR901228 and the intracellular DNA content was measured by staining with propidium iodide (PI) using standard procedures. In brief, the cells were stained with a mixture of 1 μg/ml PI and 0.03% saponin in PBS for about 20 to 30 minutes. […] Accordingly, FR901228 appears to inhibit the cell cycle of activated T-cells prior to entry of S-phase.

CD154 on CD4 cells = experiment: CD154 expression on CD4 cells with or without IL-2; type: cell-based, human; details: 20 ng/ml added day three; 3×28 beads and/or 20 units/ml IL-2; read day 4; FIG. 9
Description: The effect of FR901228 on the induction of the CD154 activation marker on CD4 cells is studied. In this regard, cells are labeled with FITC-coupled anti-human CD4 Ab (Immunotech, Fullerton, Calif.), PE-coupled anti-human CD154 Ab (Becton Dickinson, Fullerton, Calif.), or FITC- or PE-coupled IgG1 isotype control Ab. Cells, 2×10^5 are labeled for 20 minutes at 4° C. with 2 μl of each antibody in a final volume of 30 μl, washed and resuspended in 1% parformaldehyde (Sigma, St. Louis, Mo.). The cells are stimulated for four days in the presence of 3×28 beads and/or 20 units/ml IL-2 or an anti-IL-2 antibody at day three, FR901228 is added to the culture at a concentration of 20 ng/ml. On day 4, mean fluorescence intensity is measured by flow cytometry.

NOD mice = experiment: Diabetes onset in NOD mice; type: in vivo; details: 0.5 mg/kg i.p. every other day; ten NOD animals
Description: FR901228 was dissolved in 10% DMSO in PBS and were administered i.p. to NOD or NODSCID mice every other day. Controls contained only the DMSO excipient (10% DMSO in PBS). […] 0.5 mg/kg of FR901228 was administered at each treatment to twenty animals (ten NOD animals and ten NODSCID animals). Every two weeks the number of mice in each treatment group that had become diabetic was evaluated by measuring blood glucose levels using a glucometer at bi-weekly intervals. A reading of more than 200 mg/dl of blood glucose on two consecutive observations was considered indicative of frank diabetes.

Structure (SMILES): C/C=C1\NC(=O)[C@H]2CSSCC/C=C/[C@H](CC(=O)N[C@H](C(C)C)C(=O)N2)OC(=O)[C@H](C(C)C)NC1=O [FR901228]
- CD3-induced IL-2 production (A1.1 T-cell hybridoma): did not inhibit
- concentration with no significant effect on proliferation of CD4 cells (CD4 cells [1]; 3×28 beads): ≤ 1 ng/mL
- lowest concentration that completely inhibits proliferation of CD4 cells (CD4 cells [1]; 3×28 beads): 10 ng/mL
- T-cell proliferation on addition of IL-2 (CD4 cells [1]; addition of 100 U/ml IL-2): will not restore proliferation
- lowest concentration that significantly inhibits proliferation induced by allogenic dendritic cells (CD4 cells [1]; allogenic dendritic cells, MTT day 6): 1 ng/ml
- concentration with no significant effect on proliferation of CD4 cells (CD4 cells [1]; ionomycin/PMA): ≤ 1 ng/mL
- lowest concentration that completely inhibits proliferation of CD4 cells (CD4 cells [1]; ionomycin/PMA): 10 ng/mL
- inhibition of CD4 positive T-cell proliferation (CD4 cells [1]; stimulation by anti-CD3/anti-CD28 beads, FIG. 3): dose dependent inhibition
- inhibition of CD4 positive T-cell proliferation (CD4 cells [1]; stimulation with in vitro generated allogenic dendritic cells, FIG. 4): dose dependent inhibition
- DNA synthesis in stimulated CD4 cells (CD4 cells [2]): DNA synthesis does not take place
- CD154 expression in presence or absence of IL-2 (CD154 on CD4 cells): suppression of CD154 expression
- development of frank diabetes during the 18 week study (NOD mice): no NOD mouse treated with the compound developed frank diabetes

Source: patent US7041639B2, “Depsipeptide and congeners thereof for use as immunosuppressants” (XCYTE Therapies, Inc., priority 1999, dated 2006)
